This note sets out measurements from US20240368113A1, “AMIDE COMPOUND AND USE THEREOF” (Chengdu Fendi Pharmaceutical Co. Ltd., priority 2021, published 2024).

pIC50: −log10 of the molar value.

T2 sequence (P15170 whole entry): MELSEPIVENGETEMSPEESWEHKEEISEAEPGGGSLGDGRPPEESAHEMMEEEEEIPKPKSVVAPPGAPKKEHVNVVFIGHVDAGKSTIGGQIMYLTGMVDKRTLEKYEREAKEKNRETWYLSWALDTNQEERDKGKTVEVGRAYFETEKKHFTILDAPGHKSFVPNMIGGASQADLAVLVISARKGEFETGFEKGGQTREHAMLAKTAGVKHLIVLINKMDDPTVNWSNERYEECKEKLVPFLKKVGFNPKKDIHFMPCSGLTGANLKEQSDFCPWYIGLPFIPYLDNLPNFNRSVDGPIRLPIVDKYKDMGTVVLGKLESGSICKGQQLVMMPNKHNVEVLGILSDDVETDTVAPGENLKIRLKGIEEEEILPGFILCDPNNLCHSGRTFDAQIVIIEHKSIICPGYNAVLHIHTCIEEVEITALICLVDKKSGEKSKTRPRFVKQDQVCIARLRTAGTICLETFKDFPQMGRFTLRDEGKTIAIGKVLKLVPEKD

The subject of the first data set is MV-4-11 cells. Description: Inhibition of tumor cell proliferation (CellTiter-Glo). The data set is classed as cell-based. Conditions: Homo sapiens, MV4-11; MV-4-11 cells, 72 h, CellTiter-Glo; read-out: IC50 of inhibitory activity of tumor cell proliferation. The protocol: MV-4-11 cells were diluted with medium (RPM1640+10% FBS+1% PS) and plated at 4000 cells/well in a white-walled clear-bottom 96-well plate. MV-4-11 cells were plated and incubated in a 5% CO2, 37° C. incubator for 2 hours. Cells were treated with the indicated concentration of compound or DMSO (control), and placed in a 5% CO2, 37° C. incubator for 72 h after dosing. After the end of the culture, equilibrate at room temperature for 30 min, add 100 μl of CellTiter-Glo® Reagent to each well, and shake the microplate shaker for 2 min. After 10 min of incubation at room temperature, the luminescence was measured by a microplate reader, and the cell-free wells were used as the background wells. CC-90009 (celegen patent phase I) was used as a control, and its structural formula was as follows: 0
Background: Cellular ATP, detected with luciferase, serves as a proxy for viable cell number.
On to `O=C(C#Cc1ccc(F)cn1)NCc1ccc2c(c1)CN(C1CCC(=O)NC1=O)C2=O` (stereo not shown) [Compound 12], for which the pIC50 was 8.00 to 9.00.

As for `O=C1CCC(N2Cc3cc(CNC(=O)C(F)(F)c4ccc(Cl)cc4)ccc3C2=O)C(=O)N1` (stereo not shown) [CC-90009], the pIC50 is 7.00 to 8.00.

For `Nc1ccccc1C#CC(=O)NCc1ccc2c(c1)CN(C1CCC(=O)NC1=O)C2=O` (stereo not shown) [Compound 83], the pIC50 is 8.00 to 9.00.

For `CC(C)(C)OC(=O)c1ccc(C#CC(=O)NCc2ccc3c(c2)CN(C2CCC(=O)NC2=O)C3=O)cc1` (stereo not shown) [Compound 25], the pIC50 was more than 9.00.

As to `Cn1ccc(C#CC(=O)NCc2ccc3c(c2)CN(C2CCC(=O)NC2=O)C3=O)n1` (stereo not shown) [Compound 35], the pIC50 is 7.00 to 8.00.

In the case of `N#Cc1ncccc1C#CC(=O)NCc1ccc2c(c1)CN(C1CCC(=O)NC1=O)C2=O` (stereo not shown) [Compound 43], the pIC50 is less than 7.00.

Turning to `O=C(C#Cc1ccncc1)NCc1ccc2c(c1)CN(C1CCC(=O)NC1=O)C2=O` (stereo not shown) [Compound 23], the pIC50 was less than 7.00.

Consider `O=C(C#Cc1ccc2c(c1)OCO2)NCc1ccc2c(c1)CN(C1CCC(=O)NC1=O)C2=O` (stereo not shown) [Compound 24], for which the pIC50 is more than 9.00.

Consider `COc1ccc(C#CC(=O)NCc2ccc3c(c2)CN(C2CCC(=O)NC2=O)C3=O)nc1` (stereo not shown) [Compound 30], for which the pIC50 is 8.00 to 9.00.

For the compound `CC(C)(C)C(=O)OCOC(=O)c1cccc(C#CC(=O)NCc2ccc3c(c2)CN(C2CCC(=O)NC2=O)C3=O)c1` (stereo not shown) [Compound 78], the pIC50 is less than 7.00.

As to `O=C(C#Cc1ccc(O)cc1)NCc1ccc2c(c1)CN(C1CCC(=O)NC1=O)C2=O` (stereo not shown) [Compound 57], the pIC50 was 7.00 to 8.00.

As for `Cc1ccc(C#CC(=O)NCc2ccc3c(c2)CN(C2CCC(=O)NC2=O)C3=O)cc1N` (stereo not shown) [Compound 52], the pIC50 is more than 9.00.

In the case of `CCc1ccc(C#CC(=O)NCc2ccc3c(c2)CN(C2CCC(=O)NC2=O)C3=O)cc1` (stereo not shown) [Compound 1], the pIC50 is more than 9.00.

As for `CC(C)(C)C(=O)OCOC(=O)c1ccccc1C#CC(=O)NCc1ccc2c(c1)CN(C1CCC(=O)NC1=O)C2=O` (stereo not shown) [Compound 77], the pIC50 is less than 7.00.

Consider `CC(C)(C)[Si](C)(C)OCC#CC(=O)NCc1ccc2c(c1)CN(C1CCC(=O)NC1=O)C2=O` (stereo not shown) [Compound 21], for which the pIC50 is more than 9.00.

For `CC(=O)c1ccc(C#CC(=O)NCc2ccc3c(c2)CN(C2CCC(=O)NC2=O)C3=O)cc1` (stereo not shown) [Compound 118], the pIC50 was 8.00 to 9.00.

For the next data set, the target named is T1, hERG potassium channel (Homo sapiens, UniProt Q12809). Description: in vitro. The settings on record: hERG Inhibition rate (3 μM), HEK293 cells expressing hERG, 3 min exposure.
T1 sequence (Q12809 whole entry): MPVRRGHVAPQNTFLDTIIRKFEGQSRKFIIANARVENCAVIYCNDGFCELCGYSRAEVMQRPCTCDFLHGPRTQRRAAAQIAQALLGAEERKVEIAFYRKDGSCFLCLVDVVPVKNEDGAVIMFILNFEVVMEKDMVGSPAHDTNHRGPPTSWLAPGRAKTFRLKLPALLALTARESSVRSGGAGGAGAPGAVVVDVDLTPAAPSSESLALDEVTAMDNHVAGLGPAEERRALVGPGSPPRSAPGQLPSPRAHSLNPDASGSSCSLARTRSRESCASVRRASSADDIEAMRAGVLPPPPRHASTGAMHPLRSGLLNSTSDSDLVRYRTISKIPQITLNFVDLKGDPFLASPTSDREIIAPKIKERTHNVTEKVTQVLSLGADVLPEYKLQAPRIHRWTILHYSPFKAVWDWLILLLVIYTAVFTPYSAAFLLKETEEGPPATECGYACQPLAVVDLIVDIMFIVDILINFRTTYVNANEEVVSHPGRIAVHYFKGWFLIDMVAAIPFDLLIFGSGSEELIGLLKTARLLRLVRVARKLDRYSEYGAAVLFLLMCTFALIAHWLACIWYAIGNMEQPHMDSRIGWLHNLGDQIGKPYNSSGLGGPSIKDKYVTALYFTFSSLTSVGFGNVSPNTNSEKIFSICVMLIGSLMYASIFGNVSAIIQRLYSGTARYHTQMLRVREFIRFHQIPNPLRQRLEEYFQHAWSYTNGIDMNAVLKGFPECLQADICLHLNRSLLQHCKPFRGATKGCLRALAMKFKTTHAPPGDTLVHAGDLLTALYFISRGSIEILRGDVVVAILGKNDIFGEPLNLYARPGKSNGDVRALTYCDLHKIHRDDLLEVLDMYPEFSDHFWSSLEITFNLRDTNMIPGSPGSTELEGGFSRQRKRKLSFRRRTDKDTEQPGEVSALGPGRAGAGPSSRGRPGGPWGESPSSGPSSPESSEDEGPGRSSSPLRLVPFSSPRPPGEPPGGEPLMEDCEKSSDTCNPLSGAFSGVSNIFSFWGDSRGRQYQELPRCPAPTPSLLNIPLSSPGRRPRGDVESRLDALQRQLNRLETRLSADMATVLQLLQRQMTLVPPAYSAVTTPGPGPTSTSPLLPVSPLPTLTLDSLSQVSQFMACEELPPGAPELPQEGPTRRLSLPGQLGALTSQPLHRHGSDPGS
Description: (§2) This test example is used to measure the effect of the compound on the hERG potassium channel of the clone expressed in human embryonic kidney cells (HEK293).
(§3) Assay: cells are placed in HEPES-buffered saline solution in glass-lined 96-well plates and loaded with appropriate amounts of test and control solution (0.3% DMSO solution) at each concentration for 3 min exposure time. Dilute the compound to be tested in 0.3% DMSO. An automated parallel patch-clamp system QPatch 48 X (Sophion) was used to test the inhibition of hERG by compounds at a concentration of 3 μM.
(§4) The calculation method of the inhibition rate is as follows: (peak tail current in the control group−peak tail current in the test group)/(peak tail current in the control group)×100%.
Turning to `O=C1CCC(N2Cc3cc(CNC(=O)C(F)(F)c4ccc(Cl)cc4)ccc3C2=O)C(=O)N1` (stereo not shown) [CC-90009], the inhibition – broadly, the share of the control response that was lost under treatment – at 3 µM was 64%.

Another data set has as its target T2, GSPT1 (Homo sapiens, UniProt P15170). Kind of data set: Western blot of GSPT1 degradation in MV-4-11 cells. The data set is classed as cell-based. Also on record: endogenous in cells. The settings on record: 10 μM, 4 h treatment, western blot (FIG. 1). The protocol: (§1) Test Case 1: Regulatory Effect of the Present Invention Compound on GSPT1 in MV-4-11 Cells MV-4-11 (human myeloid monocytic leukemia cells) and NB-4 (human acute promyelocytic leukemia cells) cells were treated with medium RPMI 1640+10% FBS at 1*10^6/well was seeded in 6-well plates, then compounds were added for 4 h treatment, DMSO was used as a blank control, and cells were collected by centrifugation. Western blot analysis was performed with antibody labeling (Anti-GSPT1: CellSignaling Technology #14980s; Anti-GAPDH: HuabioET601-4; Goatanti-RabbitIgG-HRPantibody: HuabioHA1001) for detection on a Bio-Rad or MINICHEMI™ imaging system.
On the technique in general: Immunoblotting shows a protein as a band on a membrane.
On to `CCc1ccc(C#CC(=O)NCc2ccc3c(c2)CN(C2CCC(=O)NC2=O)C3=O)cc1` (stereo not shown) [Compound 1], for which the “degradation of GSPT1 protein” value is on record as “completely degradation”.

Still in this data set, the particulars now being: concentrations from 1.52 nM, 4 h treatment, western blot (FIG. 1).
As for `O=C(C#Cc1ccc(F)cn1)NCc1ccc2c(c1)CN(C1CCC(=O)NC1=O)C2=O` (stereo not shown) [Compound 12], the “degradation of GSPT1, concentration dependence” value is reported as “induced the degradation of GSPT1 more as the concentration increases”.

A further data set has as its target T2, GSPT1. Description: Western blot of GSPT1 degradation in NB-4 cells. The settings on record: 0.01 μM, 4 h treatment, western blot (FIG. 1). The arrangement: endogenous in cells; host or cells: NB-4. The data set is classed as cell-based. The protocol: as §1
For the compound `Nc1ccccc1C#CC(=O)NCc1ccc2c(c1)CN(C1CCC(=O)NC1=O)C2=O` (stereo not shown) [Compound 83], the “degradation of GSPT1” value is “significantly degradation”.

The data set is the same for the next values; noted with them: pretreatment with proteasome inhibitor MG132 or NEDD8 activating enzyme inhibitor MLN4924.
For the compound `Nc1ccccc1C#CC(=O)NCc1ccc2c(c1)CN(C1CCC(=O)NC1=O)C2=O` (stereo not shown) [Compound 83], the “compound-induced degradation of GSPT1 after pretreatment with MG132 or MLN4924” value was “completely blocked”.

The next data set deals with T1, hERG potassium channel. Description: hERG inhibition assay (automated patch clamp, QPatch). The settings on record: HEK293 cells expressing hERG, 3 min exposure. (In general: hERG is a cardiac potassium channel; its block is linked to QT prolongation.)
Description: as §2, §3, §4
Turning to `O=C1CCC(N2Cc3cc(CNC(=O)C(F)(F)c4ccc(Cl)cc4)ccc3C2=O)C(=O)N1` (stereo not shown) [CC-90009], the “hERG Inhibition rate (3 μM)” value is 64.48%.
